Assay results as given in patent US20240025908A1, “COMPOUND USED AS KINASE INHIBITOR AND USE THEREOF” (TYK MEDICINES, INC., priority 2020, published 2024).

What was measured:
ALK = ALK (Homo sapiens (Human), UniProt Q9UM73); test: Radio-tagged HotSpot kinase assay, ALK; type: biochemical
Method: (§1) Inhibition of protein kinase activity by compounds was carried out on the Radio-tagged HotSpot kinase experimental platform of Reaction Biology Corporation. Fresh reaction solution (20 mM TIEPESpH 7.5, 10 mM MgCl2, 1 mM EGTA, 0.02% Brij35, 0.02 mg/ml BSA, 0.1 mM Na3VO4, 2 mM DTT, […]) containing corresponding substrates was prepared, cofactor and kinase to be tested were added into the above solution and mixed gently. Echo550 pipetting system was used to add the test compound DMSO solution to each well (the blank control group was added with the corresponding volume of DMSO), then 33P-ATP (with a final specific activity of 0.01 μCi/μL) was added to start the reaction. The reaction solution was incubated at room temperature for 120 minutes. Transferred the incubated reaction solution to P81 ion exchange chromatographic paper (Whatman #3698-915), eluted with […] phosphoric acid solution, and the amount of radioactive phosphorylated substrate remaining on the chromatographic paper was detected.

TRKA (G677C) = TRKA (G677C) (Homo sapiens, UniProt P04629, G667C); test: Radio-tagged HotSpot kinase assay, TRKA (G677C); type: biochemical; details: read-out: TRKA (G677C) (IC50/nM)
Method: as §1

ALK (G1202R) = ALK (G1202R) (Homo sapiens (Human), UniProt Q9UM73, G1202R); test: Radio-tagged HotSpot kinase assay, ALK (G1202R); type: biochemical
Method: as §1

TRKA = TRKA (Homo sapiens (Human), UniProt P04629); test: Radio-tagged HotSpot kinase assay, TRKA; type: biochemical
Method: as §1

ROS1 (G2032R) = ROS1 (G2032R) (Homo sapiens (Human), UniProt P08922, G2032R); test: Radio-tagged HotSpot kinase assay, ROS1 (G2032R); type: biochemical
Method: as §1

ROS1 = ROS1 (Homo sapiens (Human), UniProt P08922); test: Radio-tagged HotSpot kinase assay, ROS1; type: biochemical
Method: as §1

[1] = system: Ba/F3-CD74-ROS1-G2032R cells; test: In vivo efficacy study, subcutaneous Ba/F3-CD74-ROS1-G2032R tumor; parameters: species or system BALB/c nude mice; details: 20 mg/kg P.O. BID × 2 weeks
Method: Cell culture: Ba/F3-CD74-ROS1-G2032R cell line was cultured with 1640 medium (Biological Industries)+10% fetal bovine serum (BI)+1% double antibody (Penicillin Streptomycin solution, Corning, USA) at 37° C. with 5% CO2. Two passages were performed for one week. When the cell saturation was 80%-90% and the number reached the required level, the cells were collected, counted and inoculated.
Animals: BALB/c nude mice, female, 6-8 weeks of age, weighing 15-20 g. A total of 6 mice were required, provided by Beijing Vital River Laboratory Animal Technology Co., Ltd.
Tumor inoculation: 0.2 ml (2×10^6) Ba/F3-CD74-ROS1-G2032R cells (plus stromal gel, volume ratio 1:1) were inoculated subcutaneously on the right posterior dorsum of each mouse, and group dosing was started when the average tumor volume reached about 150-200 mm^3.
Experimental index: Tumor volume and body weight were measured twice a week. Tumor volume was measured by vernier calipers with the formula TV=0.5 a×b2, wherein a is the long diameter of the tumor and b is the short diameter of the tumor.

Ba/F3-CD74-ROS1-G2032R = test: Inhibition of cell proliferation (CellTiter-Glo), Ba/F3-CD74-ROS1-G2032R; type: cell-based; details: 72 hours
Method: (§2) The experiment of inhibiting cell proliferation by compounds was carried out in Hefei Zhongkeprecedo Biomedical Technology Co., Ltd. The Ba/F3 engineered cell line stably transfected with different kinase genes was recovered with RPMI 1640 medium (Biological Industries, Israel)+10% fetal bovine serum (Biological Industries, Israel)+1% double antibody (Penicillin Streptomycin solution, Coring, USA) and cultivated two generations. The logarithmic growth phase cell suspension was taken, and 2000 cells/well were inoculated on 96-well white cell culture plate (Corning 3917, NY, USA) with a volume of 95 μL per well. 5 μL of 20×DMSO solution of the compound to be tested was added into the culture plate containing 95 μL of cell suspension. The blank control group was added with corresponding volume of DMSO, mixed well, and incubated in a 5% CO2 incubator at 37° C. for 72 hours. CellTiter-Glo was used to detect cell viability.

Ba/F3-TEL-ALK-G1202R = test: Inhibition of cell proliferation (CellTiter-Glo), Ba/F3-TEL-ALK-G1202R; type: cell-based; details: 72 hours
Method: as §2

Ba/F3-LMNA-NTRK1-G595R = test: Inhibition of cell proliferation (CellTiter-Glo), Ba/F3-LMNA-NTRK1-G595R; type: cell-based; details: 72 hours
Method: as §2

Chain of TRKA (G677C) (P04629 33-796 G667C limits assumed): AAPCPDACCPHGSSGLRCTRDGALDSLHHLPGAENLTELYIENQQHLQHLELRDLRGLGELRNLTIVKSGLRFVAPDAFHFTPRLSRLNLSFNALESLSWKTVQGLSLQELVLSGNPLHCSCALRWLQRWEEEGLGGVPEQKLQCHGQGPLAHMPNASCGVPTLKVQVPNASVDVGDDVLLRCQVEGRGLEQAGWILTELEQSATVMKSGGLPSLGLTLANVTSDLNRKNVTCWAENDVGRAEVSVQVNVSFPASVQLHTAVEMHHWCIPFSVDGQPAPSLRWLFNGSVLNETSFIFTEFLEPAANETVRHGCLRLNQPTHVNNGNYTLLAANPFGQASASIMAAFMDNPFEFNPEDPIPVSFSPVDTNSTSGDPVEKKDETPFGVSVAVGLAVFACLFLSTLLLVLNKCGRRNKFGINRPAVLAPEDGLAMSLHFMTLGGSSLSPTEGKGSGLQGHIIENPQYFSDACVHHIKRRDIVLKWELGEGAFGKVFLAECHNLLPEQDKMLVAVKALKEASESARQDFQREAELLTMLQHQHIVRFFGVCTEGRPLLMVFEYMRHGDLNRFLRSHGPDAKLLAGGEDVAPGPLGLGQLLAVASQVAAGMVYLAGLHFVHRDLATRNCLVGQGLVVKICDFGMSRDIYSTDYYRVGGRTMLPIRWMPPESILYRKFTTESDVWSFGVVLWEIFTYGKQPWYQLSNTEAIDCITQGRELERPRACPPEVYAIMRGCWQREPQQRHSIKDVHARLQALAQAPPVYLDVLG
Chain of ALK (G1202R) (Q9UM73 19-1620 G1202R): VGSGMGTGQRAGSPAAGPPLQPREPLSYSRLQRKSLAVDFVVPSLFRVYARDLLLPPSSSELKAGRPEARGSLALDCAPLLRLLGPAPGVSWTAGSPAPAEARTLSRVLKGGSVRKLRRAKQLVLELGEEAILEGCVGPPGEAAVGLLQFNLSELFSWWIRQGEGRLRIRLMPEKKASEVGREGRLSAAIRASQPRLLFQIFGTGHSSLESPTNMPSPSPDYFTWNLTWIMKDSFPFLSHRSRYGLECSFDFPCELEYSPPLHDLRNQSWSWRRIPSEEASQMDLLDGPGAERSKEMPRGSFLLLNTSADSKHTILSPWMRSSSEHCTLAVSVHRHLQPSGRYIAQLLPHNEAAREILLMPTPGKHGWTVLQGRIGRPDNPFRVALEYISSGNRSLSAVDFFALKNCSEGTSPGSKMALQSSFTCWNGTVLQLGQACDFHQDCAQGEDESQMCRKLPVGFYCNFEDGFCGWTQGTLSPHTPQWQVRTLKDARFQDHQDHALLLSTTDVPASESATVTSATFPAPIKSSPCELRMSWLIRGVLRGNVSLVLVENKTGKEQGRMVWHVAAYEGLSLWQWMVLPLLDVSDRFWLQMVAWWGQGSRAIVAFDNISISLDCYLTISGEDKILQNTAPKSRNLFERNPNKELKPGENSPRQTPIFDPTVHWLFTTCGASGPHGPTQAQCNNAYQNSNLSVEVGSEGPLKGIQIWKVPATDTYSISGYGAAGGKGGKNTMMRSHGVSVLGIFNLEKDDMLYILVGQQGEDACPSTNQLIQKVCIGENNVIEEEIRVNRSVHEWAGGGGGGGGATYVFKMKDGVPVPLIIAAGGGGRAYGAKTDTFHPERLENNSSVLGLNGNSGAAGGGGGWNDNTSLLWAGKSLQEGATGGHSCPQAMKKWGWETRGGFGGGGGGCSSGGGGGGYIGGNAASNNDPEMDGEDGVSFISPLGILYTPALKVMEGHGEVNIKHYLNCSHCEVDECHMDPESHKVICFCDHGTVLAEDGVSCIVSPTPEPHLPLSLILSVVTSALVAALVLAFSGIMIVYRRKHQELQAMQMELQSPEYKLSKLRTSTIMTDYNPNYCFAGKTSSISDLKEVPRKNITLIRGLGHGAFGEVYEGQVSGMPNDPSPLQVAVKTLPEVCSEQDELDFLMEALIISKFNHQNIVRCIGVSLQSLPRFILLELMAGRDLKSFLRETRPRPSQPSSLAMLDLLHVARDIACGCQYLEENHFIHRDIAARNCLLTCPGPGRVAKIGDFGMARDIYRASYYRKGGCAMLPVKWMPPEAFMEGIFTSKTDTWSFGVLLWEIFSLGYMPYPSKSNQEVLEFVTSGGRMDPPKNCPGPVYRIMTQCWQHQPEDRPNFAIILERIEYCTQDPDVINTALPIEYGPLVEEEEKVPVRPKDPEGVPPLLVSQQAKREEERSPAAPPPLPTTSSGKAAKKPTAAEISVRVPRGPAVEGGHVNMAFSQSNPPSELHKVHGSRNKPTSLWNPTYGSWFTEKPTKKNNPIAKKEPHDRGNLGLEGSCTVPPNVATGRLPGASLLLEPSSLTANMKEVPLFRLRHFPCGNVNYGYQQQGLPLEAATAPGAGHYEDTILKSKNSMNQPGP
Chain of ROS1 (G2032R) (P08922 28-2347 G2032R): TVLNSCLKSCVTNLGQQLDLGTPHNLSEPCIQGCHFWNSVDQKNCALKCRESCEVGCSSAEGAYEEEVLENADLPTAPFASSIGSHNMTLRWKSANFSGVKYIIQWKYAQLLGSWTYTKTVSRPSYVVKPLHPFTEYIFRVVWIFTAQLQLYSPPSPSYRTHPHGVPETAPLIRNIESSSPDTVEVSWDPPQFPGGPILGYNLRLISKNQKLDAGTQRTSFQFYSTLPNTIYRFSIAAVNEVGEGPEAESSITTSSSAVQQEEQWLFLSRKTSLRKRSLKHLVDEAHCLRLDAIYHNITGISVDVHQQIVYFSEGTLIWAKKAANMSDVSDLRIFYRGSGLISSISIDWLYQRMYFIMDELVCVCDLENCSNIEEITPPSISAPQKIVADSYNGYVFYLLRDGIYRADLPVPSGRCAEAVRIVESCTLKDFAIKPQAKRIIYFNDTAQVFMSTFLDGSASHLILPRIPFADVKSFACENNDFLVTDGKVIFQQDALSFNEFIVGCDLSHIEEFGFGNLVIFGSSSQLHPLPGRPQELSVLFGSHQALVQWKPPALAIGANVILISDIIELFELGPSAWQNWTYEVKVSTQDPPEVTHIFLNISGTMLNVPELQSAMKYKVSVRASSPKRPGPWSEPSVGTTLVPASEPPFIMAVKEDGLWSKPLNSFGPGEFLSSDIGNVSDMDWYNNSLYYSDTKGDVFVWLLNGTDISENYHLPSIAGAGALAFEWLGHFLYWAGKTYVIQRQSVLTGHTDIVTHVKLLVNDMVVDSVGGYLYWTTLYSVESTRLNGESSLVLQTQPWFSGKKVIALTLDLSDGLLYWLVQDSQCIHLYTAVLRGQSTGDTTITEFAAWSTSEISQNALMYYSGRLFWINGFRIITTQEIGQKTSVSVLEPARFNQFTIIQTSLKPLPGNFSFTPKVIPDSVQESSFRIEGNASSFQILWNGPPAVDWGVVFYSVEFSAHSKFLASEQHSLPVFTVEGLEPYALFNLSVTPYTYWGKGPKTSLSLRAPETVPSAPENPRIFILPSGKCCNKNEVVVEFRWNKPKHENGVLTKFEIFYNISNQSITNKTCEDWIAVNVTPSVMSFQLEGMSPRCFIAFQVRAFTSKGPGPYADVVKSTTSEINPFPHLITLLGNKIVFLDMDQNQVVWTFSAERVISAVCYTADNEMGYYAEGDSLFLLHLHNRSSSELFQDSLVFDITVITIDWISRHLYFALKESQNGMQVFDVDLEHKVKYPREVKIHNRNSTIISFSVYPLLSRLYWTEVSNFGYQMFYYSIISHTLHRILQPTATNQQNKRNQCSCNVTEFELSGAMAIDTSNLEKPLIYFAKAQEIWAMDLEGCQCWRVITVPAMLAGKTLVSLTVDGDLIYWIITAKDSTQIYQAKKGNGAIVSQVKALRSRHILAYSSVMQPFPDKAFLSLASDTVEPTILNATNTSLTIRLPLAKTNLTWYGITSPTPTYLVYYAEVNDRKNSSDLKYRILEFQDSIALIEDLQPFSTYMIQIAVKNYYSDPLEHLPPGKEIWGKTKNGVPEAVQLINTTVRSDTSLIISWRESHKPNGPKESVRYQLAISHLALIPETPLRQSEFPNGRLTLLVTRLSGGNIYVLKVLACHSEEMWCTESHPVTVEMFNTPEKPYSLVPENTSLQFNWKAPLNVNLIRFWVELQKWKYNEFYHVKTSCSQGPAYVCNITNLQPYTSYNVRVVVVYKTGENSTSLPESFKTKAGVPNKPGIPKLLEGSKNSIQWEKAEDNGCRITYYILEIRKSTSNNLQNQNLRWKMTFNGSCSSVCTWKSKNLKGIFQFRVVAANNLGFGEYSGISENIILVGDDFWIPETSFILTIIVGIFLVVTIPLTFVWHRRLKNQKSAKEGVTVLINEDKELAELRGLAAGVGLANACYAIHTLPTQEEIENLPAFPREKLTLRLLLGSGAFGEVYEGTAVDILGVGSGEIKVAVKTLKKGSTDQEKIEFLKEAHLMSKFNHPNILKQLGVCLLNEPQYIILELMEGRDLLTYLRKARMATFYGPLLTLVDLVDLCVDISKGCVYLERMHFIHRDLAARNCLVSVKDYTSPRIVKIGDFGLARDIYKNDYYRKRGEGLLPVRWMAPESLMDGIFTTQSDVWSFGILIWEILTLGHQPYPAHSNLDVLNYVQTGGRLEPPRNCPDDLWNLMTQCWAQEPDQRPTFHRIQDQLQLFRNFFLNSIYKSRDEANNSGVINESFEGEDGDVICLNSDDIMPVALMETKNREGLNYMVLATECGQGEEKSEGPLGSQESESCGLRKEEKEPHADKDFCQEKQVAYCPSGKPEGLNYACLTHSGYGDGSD
Chain of ROS1 (P08922 28-2347): as the sequence (P08922 28-2347 G2032R) above, with R2005G counted along it
Chain of TRKA (P04629 33-796): as the sequence (P04629 33-796 G667C limits assumed) above, with C635G counted along it
Chain of ALK (Q9UM73 19-1620): as the sequence (Q9UM73 19-1620 G1202R) above, with R1184G counted along it

Row | Structure (SMILES) | IC50 (ALK) [nM] | IC50 (TRKA (G677C)) [nM] | IC50 (ALK (G1202R)) [nM] | IC50 (TRKA) [nM] | IC50 (ROS1 (G2032R)) [nM] | IC50 (ROS1) [nM] | Tumor Volume ([1]; 0 days) [mm^3] | Tumor Volume ([1]; 4 days) [mm^3] | Tumor Volume ([1]; 7 days) [mm^3] | Tumor Volume ([1]; 11 days) [mm^3] | Tumor Volume ([1]; 14 days) [mm^3] | IC50 (Ba/F3-CD74-ROS1-G2032R) [nM] | IC50 (Ba/F3-TEL-ALK-G1202R) [nM] | IC50 (Ba/F3-LMNA-NTRK1-G595R) [nM]
1 | COc1ccc(F)cc1[C@@H](C)Nc1ccn2ncc(NC3=NC(C)(C)CO3)c2n1 [Example 1] | 0.5 to 5 | 0.5 to 5 | 5 to 50 | 0.5 to 5 | 0.5 to 5 | 0.5 to 5 |  |  |  |  |  |  |  | 
2 | C[C@@H](Nc1ccn2ncc(NC3=NC(C)(C)CO3)c2n1)c1cc(F)cc(F)c1F [Example 2] | 0.5 to 5 | 0.5 to 5 | 5 to 50 | 0.5 to 5 | 0.5 to 5 | 0.5 to 5 |  |  |  |  |  |  |  | 
3 | C[C@@H](Nc1ccn2ncc(C3=NOCCN3)c2n1)c1cc(F)cc(F)c1F [Example 3] | 0.5 to 5 | < 0.5 | 0.5 to 5 | < 0.5 | < 0.5 | < 0.5 |  |  |  |  |  |  |  | 
4 | C[C@@H](Nc1ccn2ncc(C3=NOCC(C)(C)N3)c2n1)c1cc(F)cc(F)c1F [Example 4] | 0.5 to 5 | 0.5 to 5 | 5 to 50 | < 0.5 | 0.5 to 5 | < 0.5 | 167.31 | 216.42 | 292.24 | 375.67 | 688.91 |  |  | 
5 | C[C@@H](Nc1ccn2ncc(C3=NN=CC(C)(C)N3)c2n1)c1cc(F)cc(F)c1F [Example 5] | 5 to 50 | 5 to 50 | 5 to 50 | 0.5 to 5 | 5 to 50 | 0.5 to 5 |  |  |  |  |  |  |  | 
6 | C[C@@H](Nc1ccn2ncc(C3=NC(=O)C(C)(C)N3)c2n1)c1cc(F)ccc1OC(F)F [Example 6] | 0.5 to 5 | < 0.5 | 5 to 50 | < 0.5 | < 0.5 | < 0.5 |  |  |  |  |  | 24.1 | 110 | 13.4
7 | COc1ccc(F)cc1[C@@H](C)Nc1ccn2ncc(C3=NC(=O)C(C)(C)N3)c2n1 [Example 7] | 0.5 to 5 | < 0.5 | 5 to 50 | < 0.5 | < 0.5 | < 0.5 |  |  |  |  |  | 54.6 |  | 36.1
8 | C[C@@H](Nc1ccn2ncc(C3=NC(=O)C(C)(C)N3)c2n1)c1cc(F)cc(F)c1F [Example 8] | 0.5 to 5 | < 0.5 | 5 to 50 | < 0.5 | < 0.5 | < 0.5 |  |  |  |  |  |  |  | 
9 | C[C@@H](Nc1ccn2ncc(C3=NOCCN3)c2n1)c1cc(F)ccc1OC(F)F [Example 9] | 0.5 to 5 | < 0.5 | 5 to 50 | < 0.5 | < 0.5 | < 0.5 |  |  |  |  |  | 31.6 | 75.6 | 6.1
10 | COc1ncc(F)cc1[C@@H](C)Nc1ccn2ncc(C3=NC(=O)C(C)(C)N3)c2n1 [Example 10] | 0.5 to 5 | < 0.5 | 5 to 50 | < 0.5 | < 0.5 | < 0.5 |  |  |  |  |  |  |  | 
11 | CCCOC(=O)/N=C(\N)c1cnn2ccc(N[C@H](C)c3cc(F)cc(F)c3F)nc12 [Example 11] | 50 to 500 | 5 to 50 | 50 to 500 | 0.5 to 5 | 5 to 50 | 0.5 to 5 |  |  |  |  |  |  |  | 
12 | COc1ccc(F)cc1[C@@H](C)Nc1ccn2ncc(NC3=NC(C)(C)CN3)c2n1 [Example 12] | 5 to 50 | 5 to 50 | 5 to 50 | 0.5 to 5 | 5 to 50 | 0.5 to 5 |  |  |  |  |  |  |  | 
13 | C[C@@H](Nc1ccn2ncc(C(=O)NOCCO)c2n1)c1cc(F)cc(F)c1F [Example 13] | 50 to 500 | 50 to 500 | 50 to 500 | 5 to 50 | 50 to 500 | 5 to 50 |  |  |  |  |  |  |  | 
14 | COc1ccc(F)cc1[C@@H](C)Nc1ccn2ncc(OC3=NC(C)(C)CN3)c2n1 [Example 14] | 50 to 500 | 5 to 50 | 50 to 500 | 0.5 to 5 | 5 to 50 | 0.5 to 5 |  |  |  |  |  |  |  | 
15 | C[C@@H](Nc1ccn2ncc(OC3=NCC(C)(C)N3)c2n1)c1cc(F)cc(F)c1F [Example 15] | 50 to 500 | 5 to 50 | 50 to 500 | 0.5 to 5 | 5 to 50 | 0.5 to 5 |  |  |  |  |  |  |  | 
16 | C[C@@H](Nc1ccn2ncc(C3=NOCC(C)(C)N3)c2n1)c1cc(F)ccc1OC(F)F [Example 16] | 5 to 50 | 5 to 50 | 50 to 500 | 0.5 to 5 | 5 to 50 | 0.5 to 5 |  |  |  |  |  |  |  | 
17 | C[C@@H](Nc1ccn2ncc(NC3=NCC(C)(C)N3)c2n1)c1cc(F)cc(F)c1F [Example 17] | 50 to 500 | 5 to 50 | 50 to 500 | 0.5 to 5 | 5 to 50 | 0.5 to 5 |  |  |  |  |  |  |  | 
18 | COc1c(F)cc(F)cc1[C@@H](C)Nc1ccn2ncc(NC3=NC(C)(C)CO3)c2n1 [Example 18] | 5 to 50 | 5 to 50 | 50 to 500 | 0.5 to 5 | 5 to 50 | 0.5 to 5 |  |  |  |  |  |  |  | 
19 | C[C@@H](Nc1ccn2ncc(C3=NOCCN3)c2n1)c1cc(F)cc(C(F)(F)F)c1F [Example 19] | 5 to 50 | 5 to 50 | 50 to 500 | 0.5 to 5 | 5 to 50 | 0.5 to 5 |  |  |  |  |  |  |  | 
20 | COc1c(F)cc(F)cc1[C@@H](C)Nc1ccn2ncc(C3=NC(=O)C(C)(C)N3)c2n1 [Example 20] | 0.5 to 5 | 0.5 to 5 | 5 to 50 | < 0.5 | 0.5 to 5 | < 0.5 |  |  |  |  |  |  |  | 
21 | C[C@@H](Nc1ccn2ncc(C3=NC(=O)C(C)(C)N3)c2n1)c1cc(F)ccc1OC(F)(F)F [Example 21] | 0.5 to 5 | 0.5 to 5 | 5 to 50 | < 0.5 | 0.5 to 5 | < 0.5 |  |  |  |  |  |  |  | 
22 | CCOc1ncc(F)cc1[C@@H](C)Nc1ccn2ncc(C3=NOCCN3)c2n1 [Example 22] | 0.5 to 5 | 0.5 to 5 | 5 to 50 | < 0.5 | 0.5 to 5 | < 0.5 |  |  |  |  |  |  |  | 
23 | C[C@@H](Nc1ccn2ncc(C3=NC(=O)C(C)(C)N3)c2n1)c1cc(F)cnc1OCC(F)(F)F [Example 23] | 5 to 50 | 0.5 to 5 | 50 to 500 | < 0.5 | 0.5 to 5 | < 0.5 |  |  |  |  |  |  |  | 
24 | CONC(=O)c1cnn2ccc(N[C@H](C)c3cc(F)cc(F)c3F)nc12 [Example 24] | 5 to 50 | 50 to 500 | 50 to 500 | 5 to 50 | 50 to 500 | 5 to 50 |  |  |  |  |  |  |  | 
25 | C[C@@H](Nc1ccn2ncc(C3=NC(=O)C(C)(C)N3)c2n1)c1cc(F)cnc1OC(F)(F)F [Example 25] | 0.5 to 5 | 0.5 to 5 | 5 to 50 | < 0.5 | 0.5 to 5 | < 0.5 |  |  |  |  |  |  |  | 
26 | C[C@@H](Nc1ccn2ncc(C3=NOCCN3)c2n1)c1cc(F)ccc1C(F)(F)F [Example 27] | 5 to 50 | 50 to 500 | 50 to 500 | 0.5 to 5 | 50 to 500 | 0.5 to 5 |  |  |  |  |  |  |  | 
27 | C[C@@H](Nc1ccn2ncc(C3=NOCCN3)c2n1)c1cc(F)ccc1C(F)F [Example 28] | 5 to 50 | 50 to 500 | 50 to 500 | 0.5 to 5 | 50 to 500 | 0.5 to 5 |  |  |  |  |  |  |  | 
